Like-named read-outs stand apart in the source and are kept apart here.
How the values were obtained:
Format in all cases: in vivo
[1] = system: boll weevil (Anthonomus grandis); assay: Action on boll weevil, eggs on insect diet in 96-well microtiter plates; conditions: 120 h, read-out: mortality in comparison with untreated controls
Protocol: Example B3: Action on Boll Weevil (Anthonomus grandis)
For evaluating control of boll weevil (Anthonomus grandis) the test unit consisted of 96-well-microtiter plates containing an insect diet and 5-10 A. grandis eggs.
(§1) The compounds were formulated using a solution containing 75% v/v water and 25% v/v DMSO. Different concentrations of formulated compounds were sprayed onto the insect diet at 5 μl, using a custom built micro atomizer, at two replications.
After application, microtiter plates were incubated at about 25±1° C. and about 75±5% relative humidity for 5 days. Egg and larval mortality was then visually assessed.

[2] = system: Mediterranean fruitfly (Ceratitis capitata); assay: Action on Mediterranean fruitfly, eggs on insect diet in microtiter plates; conditions: 120 h, egg and larval mortality visually assessed after 5 days, read-out: mortality in comparison with untreated controls
Protocol: Example B5: Action on Mediterranean Fruitfly (Ceratitis capitata)
For evaluating control of Mediterranean fruitfly (Ceratitis capitata) the test unit consisted of microtiter plates containing an insect diet and 50-80 C. capitata eggs.
as §1
After application, microtiter plates were incubated at about […] and about 80+5% relative humidity for 5 days. Egg and larval mortality was then visually assessed.

[3] = system: tobacco budworm (Heliothis virescens); assay: Action on tobacco budworm, eggs on insect diet in 96-well microtiter plates; conditions: 120 h, egg and larval mortality visually assessed after 5 days, read-out: mortality in comparison with untreated controls
Protocol: Example B6: Action on Tobacco Budworm (Heliothis virescens)
For evaluating control of tobacco budworm (Heliothis virescens) the test unit consisted of 96-well-microtiter plates containing an insect diet and 15-25 H. virescens eggs.
The compounds were formulated using a solution containing 75% v/v water and 25% v/v DMSO. Different concentrations of formulated compounds were sprayed onto the insect diet at 10 μl, using a custom built micro atomizer, at two replications.
After application, microtiter plates were incubated at about 28±1° C. and about 80±5% relative humidity for 5 days. Egg and larval mortality was then visually assessed.

[4] = system: yellow fever mosquito (Aedes aegypti); assay: whole plant or invertebrate; conditions: 48 h, larval mortality visually assessed after 2 days, read-out: mortality in comparison with untreated controls
Protocol: Example B1: Action on Yellow Fever Mosquito (Aedes aegypti)
For evaluating control of yellow fever mosquito (Aedes aegypti) the test unit consisted of 96-well-microtiter plates containing 200 μl of tap water per well and 5-15 freshly hatched A. aegypti larvae.
The active compounds were formulated using a solution containing 75% (v/v) water and 25% (v/v) DMSO. Different concentrations of formulated compounds or mixtures were sprayed onto the insect diet at 2.5 μl, using a custom built micro atomizer, at two replications.
After application, microtiter plates were incubated at 28+1° C., 80+5% RH for 2 days. Larval mortality was then visually assessed.

[5] = system: Orchid Thrips (Dichromothrips corbetti); assay: Action on orchid thrips, floral-immersion technique; conditions: adult thrips, 72 hours after treatment, read-out: mortality in comparison with untreated controls
Protocol: Example B2: Action on Orchid Thrips (Dichromothrips Corbetti)
Dichromothrips corbettiadults used for bioassay were obtained from a colony maintained continuously under laboratory conditions. For testing purposes, the test compound is diluted in a 1:1 mixture of acetone:water (vol:vol), plus Kinetic® HV at a rate of 0.01% v/v.
Thrips potency of each compound was evaluated by using a floral-immersion technique. All petals of individual, intact orchid flowers were dipped into treatment solution and allowed to dry in Petri dishes. Treated petals were placed into individual re-sealable plastic along with about 20 adult thrips. All test arenas were held under continuous light and a temperature of about 28° C. for duration of the assay. After 3 days, the numbers of live thrips were counted on each petal. The percent mortality was recorded 72 hours after treatment.

[6] = system: Southern Armyworm (Spodoptera eridania), 2nd instar larvae; assay: Action on southern armyworm 2nd instar larvae, sprayed lima bean plants; conditions: 96 h, 4 days after treatment, read-out: mortality in comparison with untreated controls
Protocol: Example B10: Action on Southern Armyworm (Spodoptera eridania), 2nd Instar Larvae
The active compounds were formulated by a Tecan liquid handler in 100% cyclohexanone as a 10,000 ppm solution supplied in tubes. The 10,000 ppm solution was serially diluted in 100% cyclohexanone to make interim solutions. These served as stock solutions for which final dilutions were made by the Tecan in 50% acetone:50% water (v/v) into 10 or 20 ml glass vials. A nonionic surfactant (Kinetic®) was included in the solution at a volume of 0.01% (v/v). The vials were then inserted into an automated electrostatic sprayer equipped with an atomizing nozzle for application to plants/insects.
Lima bean plants (variety Sieva) were grown 2 plants to a pot and selected for treatment at the 1st true leaf stage. Test solutions were sprayed onto the foliage by an automated electrostatic plant sprayer equipped with an atomizing spray nozzle. The plants were dried in the sprayer fume hood and then removed from the sprayer. Each pot was placed into perforated plastic bags with a zip closure. About 10 to 11 armyworm larvae were placed into the bag and the bags zipped closed. Test plants were maintained in a growth room at about 25° C. and about 20-40% relative humidity for 4 days, avoiding direct exposure to fluorescent light (24 hour photoperiod) to prevent trapping of heat inside the bags. Mortality and reduced feeding were assessed 4 days after treatment, compared to untreated control plants.

[7] = system: Diamond Back Moth (Plutella xylostella); assay: Action on diamond back moth, dipped cabbage leaves; conditions: 3rd instar larvae, 72 hours after treatment, read-out: mortality in comparison with untreated controls
Protocol: Example B9: Action on Diamond Back Moth (Plutella xylostella)
The active compound is dissolved at the desired concentration in a mixture of 1:1 (vol:vol) distilled water:acetone. Surfactant (Kinetic® HV) is added at a rate of 0.01% (vol/vol). The test solution is prepared at the day of use.
Leaves of cabbage were dipped in test solution and air-dried. Treated leaves were placed in petri dishes lined with moist filter paper and inoculated with ten 3rd instar larvae. Mortality was recorded 72 hours after treatment. Feeding damages were also recorded using a scale of 0-100%.

[8] = 800 ppm, egg and larval mortality visually assessed after 5 days

Cc1cccc(C)c1NC(=S)N/N=C/c1ccc2c(ccc3c2ncn3-c2ccc(OC(F)(F)F)cc2)n1 [Compound C-1, 1-(2,6-dimethylphenyl)-3-[(E)-[3-[4-(trifluoromethoxy)phenyl]imidazo[4,5-f]quinolin-7-yl]methyleneamino]thiourea]
≥ 75%: mortality at 800 ppm [1, 8] | mortality at 800 ppm [2] | mortality at 800 ppm [3] | mortality at 800 ppm [4]

Cc1cccc(C)c1N1C(=O)CS/C1=N\N=C\c1ccc2c(ccc3c2ncn3-c2ccc(OC(F)(F)F)cc2)n1 [Compound C-2, (2Z)-3-(2,6-dimethylphenyl)-2-[(E)-[3-[4-(trifluoromethoxy)phenyl]imidazo[4,5-f]quinolin-7-yl]methylenehydrazono]thiazolidin-4-one]
≥ 75%: mortality at 800 ppm [1, 8] | mortality at 500 ppm [5] | mortality at 500 ppm [6] | mortality at 800 ppm [2] | mortality at 500 ppm [7] | mortality at 800 ppm [3] | mortality at 800 ppm [4]

Cc1cccc(C)c1/N=C1\SCC(=O)N1/N=C/c1ccc2c(ccc3c2ncn3-c2ccc(OC(F)(F)F)cc2)n1 [Compound C-7, (2Z)-2-(2,6-dimethylphenyl)imino-3-[(E)-[3-[4-(trifluoromethoxy)phenyl]imidazo[4,5-f]quinolin-7-yl]methyleneamino]thiazolidin-4-one]
≥ 75%: mortality at 800 ppm [1, 8] | mortality at 500 ppm [5] | mortality at 500 ppm [6] | mortality at 800 ppm [2] | mortality at 500 ppm [7] | mortality at 800 ppm [3] | mortality at 800 ppm [4]

CC1CCC(C(C)C)C(OC(=O)Nc2ccc3c(ccc4c3ncn4-c3ccc(OC(F)(F)F)cc3)n2)C1 (stereo not drawn) [Compound C-12, (2-isopropyl-5-methyl-cyclohexyl) N-[3-[4-(trifluoromethoxy)phenyl]imidazo[4,5-f]quinolin-7-yl]carbamate]
≥ 75%: mortality at 800 ppm [1]

CC(C)c1ccccc1NC(=S)N/N=C/c1cnc2c(ccc3c2ncn3-c2ccc(OC(F)(F)F)cc2)c1 [Compound C-13, 1-(2-isopropylphenyl)-3-[(E)-[3-[4-(trifluoromethoxy)phenyl]imidazo[4,5-h]quinolin-7-yl]methyleneamino]thiourea]
≥ 75%: mortality at 800 ppm [1, 8] | mortality at 500 ppm [6] | mortality at 800 ppm [2] | mortality at 500 ppm [7] | mortality at 800 ppm [3]

Cc1cccc(C)c1NC(=S)N/N=C/c1cnc2c(ccc3c2ncn3-c2ccc(OC(F)(F)F)cc2)c1 [Compound C-14, 1-(2,6-dimethylphenyl)-3-[(E)-[3-[4-(trifluoromethoxy)phenyl]imidazo[4,5-h]quinolin-7-yl]methyleneamino]thiourea]
≥ 75%: mortality at 800 ppm [1, 8] | mortality at 500 ppm [5] | mortality at 800 ppm [2] | mortality at 500 ppm [7] | mortality at 800 ppm [3] | mortality at 800 ppm [4]

Cc1cccc(C)c1N1C(=O)CS/C1=N\N=C\c1cnc2c(ccc3c2ncn3-c2ccc(OC(F)(F)F)cc2)c1 [Compound C-15, (2Z)-3-(2,6-dimethylphenyl)-2-[(E)-[3-[4-(trifluoromethoxy)phenyl]imidazo[4,5-h]quinolin-7-yl]methylenehydrazono]thiazolidin-4-one]
≥ 75%: mortality at 800 ppm [1, 8] | mortality at 500 ppm [5] | mortality at 500 ppm [6] | mortality at 800 ppm [2] | mortality at 500 ppm [7] | mortality at 800 ppm [3] | mortality at 800 ppm [4]

CC(C)c1ccccc1N1CCCS/C1=N/N=C/c1ccc2c(ccc3c2ncn3-c2ccc(OC(F)(F)F)cc2)n1 [Compound C-22, (E)-3-(2-isopropylphenyl)-N-[(E)-[3-[4-(trifluoromethoxy)phenyl]imidazo[4,5-f]quinolin-7-yl]methyleneamino]-1,3-thiazinan-2-imine]
≥ 75%: mortality at 800 ppm [1, 8] | mortality at 500 ppm [5] | mortality at 800 ppm [2] | mortality at 500 ppm [7] | mortality at 800 ppm [3] | mortality at 800 ppm [4]

CC(C)c1ccccc1NC(=S)N/N=C/c1cc2ccc3c(ncn3-c3ccc(OC(F)(F)F)cc3)c2cn1 [Compound C-24, 1-(2-isopropylphenyl)-3-[(E)-[3-[4-(trifluoromethoxy)phenyl]imidazo[4,5-h]isoquinolin-7-yl]methyleneamino]thiourea]
≥ 75%: mortality at 800 ppm [1, 8] | mortality at 500 ppm [6] | mortality at 800 ppm [2] | mortality at 500 ppm [7] | mortality at 800 ppm [3]

Cc1cccc(C)c1NC(=S)N/N=C/c1cc2ccc3c(ncn3-c3ccc(OC(F)(F)F)cc3)c2cn1 [Compound C-25, 1-(2,6-dimethylphenyl)-3-[(E)-[3-[4-(trifluoromethoxy)phenyl]imidazo[4,5-h]isoquinolin-7-yl]methyleneamino]thiourea]
≥ 75%: mortality at 800 ppm [1, 8] | mortality at 800 ppm [2] | mortality at 500 ppm [7] | mortality at 800 ppm [3]

CC(C)c1ccccc1N1C(=O)CS/C1=N\N=C\c1cc2ccc3c(ncn3-c3ccc(OC(F)(F)F)cc3)c2cn1 [Compound C-26, (2Z)-3-(2-isopropylphenyl)-2-[(E)-[3-[4-(trifluoromethoxy)phenyl]imidazo[4,5-h]isoquinolin-7-yl]methylenehydrazono]thiazolidin-4-one]
≥ 75%: mortality at 800 ppm [1, 8] | mortality at 500 ppm [5] | mortality at 500 ppm [6] | mortality at 800 ppm [2] | mortality at 500 ppm [7] | mortality at 800 ppm [3] | mortality at 800 ppm [4]

CC(C)c1ccccc1NC(=S)N/N=C/c1ccc2c(ccc3c2ncn3-c2ccc(OC(F)F)cc2)n1 [Compound C-31, 1-[(E)-[3-[4-(difluoromethoxy)phenyl]imidazo[4,5-f]quinolin-7-yl]methyleneamino]-3-(2-isopropylphenyl)thiourea]
≥ 75%: mortality at 500 ppm [5] | mortality at 500 ppm [7]

CC(C)c1ccccc1N1C(=O)CS/C1=N/N=C/c1ccc2c(ccc3c2ncn3-c2ccc(OC(F)F)cc2)n1 [Compound C-32, (2E)-2-[(E)-[3-[4-(difluoromethoxy)phenyl]imidazo[4,5-f]quinolin-7-yl]methylenehydrazono]-3-(2-isopropylphenyl)thiazolidin-4-one]
≥ 75%: mortality at 500 ppm [5] | mortality at 500 ppm [7]

— patent US10106558B2, “Azolobenzazine compounds, compositions comprising these compounds and their use for controlling invertebrate pests” (BASF SE, priority 2015, dated 2018)
